Results: patent US20050070596A1, “Methods for treatment of inflammatory diseases using CT-3 or analogs thereof” (priority 2003, published 2005)

Experiments:
PBQ-induced writhing = details: given orally at doses up to 10 mg/kg; cited from earlier work
TPA-induced erythema = details: applied topically; cited from earlier work
CB2 = CB2 (Homo sapiens, UniProt P34972); details: cited from earlier work
Legionella = details: mouse, in vivo; cited from earlier work
[1] = test system: mRNA of IL-1, IL-6 and TNFα; details: BALB/C mice injected with cannabidiol; cited from earlier work
[2] = test system: mouse peritoneal macrophages activated by LPS and IFNγ; details: cited from earlier work
[3] = in vivo; cited from earlier work
human leukocytes = details: cited from earlier work; for IFNγ synthesis: high concentrations (5-24µg/ml); for IFNγ production: low concentrations
[4] = test system: mouse experimental model of multiple sclerosis; assay: inhibition of spasticity in a mouse experimental model of multiple sclerosis; assay type: in vivo; details: for spasticity (limb stiffness assessed by the force required to bend the limb): ***P<0.001 compared to baseline
Experimental: FIG. 7 illustrates cannabinoid-mediated inhibition of spasticity in a mouse experimental model of multiple sclerosis^35. Compounds were injected intravenously (i.v.) and the level of THC (1 mg/kg i.v.) was matched to the THC content in a cannabis extract (obtained under UK Home Office Licence). […] Nabilone (1 mg/kg i.v.) a synthetic analogue of THC (generously supplied by Cambridge Biomedicals, Cesamet) could inhibit spasticity to maximal levels (˜45-50% inhibition). Mean change compared to baseline (n=10/group)

people with chronic pain = details: oral; chronic pain (n=60), those with MS; cited from earlier work
[5] = test system: levadopa-induced dyskinesia in Parkinson's disease; details: in vivo; cited from earlier work
[6] = test system: tics in Tourette's syndrome; details: oral; cited from earlier work
CB1 receptors = CB1 receptors (Homo sapiens, UniProt P21554); details: cited from earlier work
head trauma = details: phase II; cited from earlier work
NMDA receptor = details: cited from earlier work
MS patients = details: within one month after initiation of treatment; cited from earlier work

Sequence of CB2 (P34972 whole entry, species assumed): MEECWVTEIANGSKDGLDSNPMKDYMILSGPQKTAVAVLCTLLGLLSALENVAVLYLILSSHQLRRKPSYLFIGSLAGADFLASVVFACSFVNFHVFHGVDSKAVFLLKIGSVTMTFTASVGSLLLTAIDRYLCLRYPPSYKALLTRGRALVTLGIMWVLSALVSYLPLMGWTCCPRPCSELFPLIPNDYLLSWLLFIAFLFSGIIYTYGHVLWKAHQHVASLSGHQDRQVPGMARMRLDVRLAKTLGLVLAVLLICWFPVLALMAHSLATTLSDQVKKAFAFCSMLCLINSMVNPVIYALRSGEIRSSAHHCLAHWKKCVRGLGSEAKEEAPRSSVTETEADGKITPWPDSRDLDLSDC
Sequence of CB1 receptors (P21554 whole entry): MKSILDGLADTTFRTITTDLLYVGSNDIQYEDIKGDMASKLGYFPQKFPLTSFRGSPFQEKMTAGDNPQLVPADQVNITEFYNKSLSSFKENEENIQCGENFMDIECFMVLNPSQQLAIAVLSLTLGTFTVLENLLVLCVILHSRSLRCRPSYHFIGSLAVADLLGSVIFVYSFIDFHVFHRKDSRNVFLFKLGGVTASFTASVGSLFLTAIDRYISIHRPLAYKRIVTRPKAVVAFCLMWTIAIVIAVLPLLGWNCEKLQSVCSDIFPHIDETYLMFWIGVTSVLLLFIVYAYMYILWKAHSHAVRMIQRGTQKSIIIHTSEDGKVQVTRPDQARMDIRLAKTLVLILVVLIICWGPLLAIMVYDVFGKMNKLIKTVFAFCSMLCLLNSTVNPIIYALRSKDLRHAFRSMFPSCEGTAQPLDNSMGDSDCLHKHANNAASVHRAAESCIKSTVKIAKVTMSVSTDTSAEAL

C=C(C)[C@@H]1CCC(C)=C[C@H]1c1c(O)cc(CCCCC)cc1O [Cannabidiol]
PBQ-induced writhing (PBQ-induced writhing): inhibited
TPA-induced erythema (TPA-induced erythema): reduce
binding to CB2 receptor (CB2): does not bind
mortality (Legionella): not affected
level of mRNA of IL-1, IL-6 and TNFα [1]: did not show significant change
nitric oxide (NO) production [2]: inhibited
psychoactivity [3]: no psychotropic
IL-1 production (human leukocytes): decreased
IL-2 secretion (human leukocytes): did not affect
TNFα production (human leukocytes): decreased
IFNγ synthesis (human leukocytes): completely blocked
IFNγ production (human leukocytes): increase

CCCCCCC(C)(C)c1cc(O)c2c(c1)OC(C)(C)C1CCC(=O)CC21 (stereo not drawn) [Nabilone]
inhibition at 1 mg/kg ([4]; Mus musculus, iv, 1 mg/kg i.v., mean change compared to baseline, maximal levels): 45 to 50%
MS patients reporting some analgesic effect (people with chronic pain): six of 16
levadopa-induced dyskinesia [5]: inhibit

CCCCCc1cc(O)c2c(c1)OC(C)(C)[C@@H]1CCC(C)=C[C@@H]21 [THC, delta 9 tetrahydrocannabinol]
inhibition of spasticity ([4]; THC 1 mg/kg i.v.): capacity to induce maximal inhibition of spasticity
nitric oxide (NO) production [2]: inhibited
IFNγ synthesis (human leukocytes): completely blocked
IFNγ production (human leukocytes): increase
tics [6]: can inhibit tics

CCCCCCC(C)(C)c1cc(O)c2c(c1)OC(C)(C)[C@@H]1CC=C(C(=O)O)C[C@@H]21 [ajulemic acid]
spasticity (limb stiffness assessed by the force required to bend the limb) [4]: inhibits spasticity
spasticity (limb stiffness assessed by the force required to bend the limb) ([4]; listed as Ajulemic acid): anti-spastic
direct stimulation of CB1 receptors (CB1 receptors): does not directly stimulate CB1 receptors to a significant extent
cannabimimetic effects [3]: dose not induce cannabimimetic effects

CCCCCCC(C)(C)c1cc(O)c2c(c1)OC(C)(C)[C@H]1CC=C(CO)C[C@H]21 [dexanabinol]
efficacy in head trauma (head trauma): some efficacy
NMDA receptor activity (NMDA receptor): NMDA receptor antagonist

B1: IFN-.gamma.: cytokine administered in attempts to alleviate the symptoms of MS (protein, UniProt P01579 24-161, looked up)
Interferon gamma: QDPYVKEAENLKKYFNAGHSDVADNGTLFLGILKNWKEESDRKIMQSQIVSFYFKLFKNFKDDQSIQKSVETIKEDMNVKFFNSNKKKRDDFEKLTNYSVTDLNVQRKAIHELIQVMAELSPAAKTGKRKRSQMLFRG
patients with clinical exacerbation (MS patients): 7 of 18
